Laboratory results: the supplement of paper PMC10307832

What was measured:
Test in all cases: relative viability (nuclei count vs DMSO), 5 days (fraction); higher = more cells survive
[1] = tested on: HOP-62
Procedure, shortened: (§1)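 Lung cancer cell lines in 1536-well plates were dosed by pin tool the day after seeding, either with one drug alone or with a fixed anchor-drug dose plus five library-drug doses (not always all listed) in √10 steps. After 5 days, cells were fixed and their nuclei stained in one step (final 0.05% Triton X-100, 1% formaldehyde, 1 ug/ml Hoechst), then counted on 4× images. Relative viability is the nuclei count in treated wells divided by that in vehicle wells. Values are medians of duplicate plates.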

[2] = tested on: LU99A
Procedure, shortened: as §1

[3] = tested on: UMC-11
Procedure, shortened: as §1

[4] = tested on: NCI-H522
Procedure, shortened: as §1

[5] = tested on: NCI-H1650
Procedure, shortened: as §1

[6] = tested on: NCI-H3122
Procedure, shortened: as §1

[7] = tested on: NCI-H1355
Procedure, shortened: as §1

[8] = tested on: LXF-289
Procedure, shortened: as §1

[9] = tested on: SK-LU-1
Procedure, shortened: as §1

[10] = tested on: NCI-H1993
Procedure, shortened: as §1

[11] = tested on: NCI-H2170
Procedure, shortened: as §1

[12] = tested on: EPLC-272H
Procedure, shortened: as §1

[13] = tested on: PC-3 [JPC-3]
Procedure, shortened: as §1

[14] = tested on: NCI-H2405
Procedure, shortened: as §1

[15] = tested on: HCC-827
Procedure, shortened: as §1

[16] = tested on: LCLC-97TM1
Procedure, shortened: as §1

[17] = tested on: LK-2
Procedure, shortened: as §1

[18] = tested on: H3255
Procedure, shortened: as §1

[19] = tested on: ChaGo-K-1
Procedure, shortened: as §1

[20] = tested on: NCI-H2228
Procedure, shortened: as §1

[21] = tested on: NCI-H441
Procedure, shortened: as §1

[22] = tested on: EKVX
Procedure, shortened: as §1

[23] = tested on: SW 1573
Procedure, shortened: as §1

Cc1csc(=NC2CCCCC2)n1/N=C/c1ccc(O)c(O)c1O [MIM1] + COc1cccc2cc(-c3nc([C@H]4CC[C@H](C(=O)O)CC4)n4ncnc(N)c34)[nH]c12 [OSI-027] (partner 0.5 µM) showed a relative viability ([1]; first compound 0.2 µM) of 0.848, a relative viability ([1]; first compound 0.6325 µM) of 0.912 and a relative viability ([1]; first compound 2 µM) of 0.789. It also gave a relative viability ([1]; first compound 6.325 µM) of 0.666, a relative viability ([1]; first compound 20 µM) of 0.19 and a relative viability ([2]; first compound 0.2 µM) of 0.274. It also gave a relative viability ([2]; first compound 0.6325 µM) of 0.29, a relative viability ([2]; first compound 2 µM) of 0.273 and a relative viability ([2]; first compound 6.325 µM) of 0.288. It also gave a relative viability ([2]; first compound 20 µM) of 0.233, a relative viability ([3]; first compound 0.2 µM) of 0.504 and a relative viability ([3]; first compound 2 µM) of 0.579. For the same compound, the relative viability ([3]; first compound 6.325 µM) was 0.397, the relative viability ([3]; first compound 20 µM) was 0.264 and the relative viability ([4]; first compound 0.2 µM) was 0.761. For the same compound, the relative viability ([4]; first compound 0.6325 µM) was 0.578, the relative viability ([4]; first compound 2 µM) was 0.717 and the relative viability ([4]; first compound 6.325 µM) was 0.696. For the same compound, the relative viability ([4]; first compound 20 µM) was 0.67, the relative viability ([5]; first compound 0.2 µM) was 0.653 and the relative viability ([5]; first compound 0.6325 µM) was 0.668. For the same compound, the relative viability ([5]; first compound 2 µM) was 0.447, the relative viability ([5]; first compound 6.325 µM) was 0.164 and the relative viability ([5]; first compound 20 µM) was 0.147. The relative viability ([6]; first compound 0.2 µM) was 1.04, the relative viability ([6]; first compound 0.6325 µM) was 1.11 and the relative viability ([6]; first compound 2 µM) was 0.904. It also gave a relative viability ([6]; first compound 6.325 µM) of 0.398, a relative viability ([6]; first compound 20 µM) of 0.175 and a relative viability ([7]; first compound 0.2 µM) of 0.409. It also gave a relative viability ([7]; first compound 0.6325 µM) of 0.366, a relative viability ([7]; first compound 2 µM) of 0.399 and a relative viability ([7]; first compound 6.325 µM) of 0.372. For the same compound, the relative viability ([7]; first compound 20 µM) was 0.253, the relative viability ([8]; first compound 0.2 µM) was 0.782 and the relative viability ([8]; first compound 0.6325 µM) was 0.586. For the same compound, the relative viability ([8]; first compound 2 µM) was 0.806, the relative viability ([8]; first compound 6.325 µM) was 0.686 and the relative viability ([8]; first compound 20 µM) was 0.441. It also gave a relative viability ([9]; first compound 0.2 µM) of 0.394, a relative viability ([9]; first compound 0.6325 µM) of 0.389 and a relative viability ([9]; first compound 2 µM) of 0.41. The relative viability ([9]; first compound 6.325 µM) was 0.316, the relative viability ([9]; first compound 20 µM) was 0.325 and the relative viability ([10]; first compound 0.2 µM) was 0.515. For the same compound, the relative viability ([10]; first compound 0.6325 µM) was 0.57, the relative viability ([10]; first compound 2 µM) was 0.557 and the relative viability ([10]; first compound 6.325 µM) was 0.518. For the same compound, the relative viability ([10]; first compound 20 µM) was 0.474, the relative viability ([11]; first compound 0.2 µM) was 0.714 and the relative viability ([11]; first compound 0.6325 µM) was 0.595. It also gave a relative viability ([11]; first compound 2 µM) of 0.637, a relative viability ([11]; first compound 6.325 µM) of 0.461 and a relative viability ([11]; first compound 20 µM) of 0.2. The relative viability ([12]; first compound 0.2 µM) was 0.254, the relative viability ([12]; first compound 0.6325 µM) was 0.269 and the relative viability ([12]; first compound 2 µM) was 0.308. It also gave a relative viability ([12]; first compound 6.325 µM) of 0.24, a relative viability ([12]; first compound 20 µM) of 0.141 and a relative viability ([13]; first compound 0.2 µM) of 0.749. For the same compound, the relative viability ([13]; first compound 0.6325 µM) was 0.733, the relative viability ([13]; first compound 2 µM) was 0.647 and the relative viability ([13]; first compound 6.325 µM) was 0.657. The relative viability ([13]; first compound 20 µM) was 0.545, the relative viability ([14]; first compound 0.2 µM) was 0.638 and the relative viability ([14]; first compound 0.6325 µM) was 0.666. The relative viability ([14]; first compound 2 µM) was 0.637, the relative viability ([14]; first compound 6.325 µM) was 0.553 and the relative viability ([14]; first compound 20 µM) was 0.434. The relative viability ([15]; first compound 0.2 µM) was 0.758, the relative viability ([15]; first compound 0.6325 µM) was 0.775 and the relative viability ([15]; first compound 2 µM) was 0.695. The relative viability ([15]; first compound 6.325 µM) was 0.529, the relative viability ([15]; first compound 20 µM) was 0.187 and the relative viability ([16]; first compound 0.2 µM) was 0.437. The relative viability ([16]; first compound 0.6325 µM) was 0.455, the relative viability ([16]; first compound 2 µM) was 0.508 and the relative viability ([16]; first compound 6.325 µM) was 0.503. It also gave a relative viability ([16]; first compound 20 µM) of 0.193, a relative viability ([17]; first compound 0.2 µM) of 0.247 and a relative viability ([17]; first compound 0.6325 µM) of 0.201. It also gave a relative viability ([17]; first compound 2 µM) of 0.181, a relative viability ([17]; first compound 6.325 µM) of 0.169 and a relative viability ([17]; first compound 20 µM) of 0.184. It also gave a relative viability ([18]; first compound 0.2 µM) of 0.596, a relative viability ([18]; first compound 0.6325 µM) of 0.575 and a relative viability ([18]; first compound 2 µM) of 0.572. It also gave a relative viability ([18]; first compound 6.325 µM) of 0.519, a relative viability ([18]; first compound 20 µM) of 0.313 and a relative viability ([19]; first compound 0.2 µM) of 0.597. The relative viability ([19]; first compound 0.6325 µM) was 0.433, the relative viability ([19]; first compound 2 µM) was 0.535 and the relative viability ([19]; first compound 6.325 µM) was 0.387. It also gave a relative viability ([19]; first compound 20 µM) of 0.159, a relative viability ([20]; first compound 0.2 µM) of 0.773 and a relative viability ([20]; first compound 0.6325 µM) of 0.502. It also gave a relative viability ([20]; first compound 2 µM) of 0.653, a relative viability ([20]; first compound 6.325 µM) of 0.217 and a relative viability ([20]; first compound 20 µM) of 0.137. For the same compound, the relative viability ([21]; first compound 0.2 µM) was 0.575, the relative viability ([21]; first compound 2 µM) was 0.625 and the relative viability ([21]; first compound 6.325 µM) was 0.472. For the same compound, the relative viability ([21]; first compound 20 µM) was 0.191, the relative viability ([22]; first compound 0.2 µM) was 0.803 and the relative viability ([22]; first compound 0.6325 µM) was 0.767. It also gave a relative viability ([22]; first compound 2 µM) of 0.719, a relative viability ([22]; first compound 6.325 µM) of 0.53 and a relative viability ([22]; first compound 20 µM) of 0.583. For the same compound, the relative viability ([23]; first compound 0.2 µM) was 0.689, the relative viability ([23]; first compound 0.6325 µM) was 0.724 and the relative viability ([23]; first compound 2 µM) was 0.544. For the same compound, the relative viability ([23]; first compound 6.325 µM) was 0.46 and the relative viability ([23]; first compound 20 µM) was 0.0875.
